Results published in patent US20050031557A1, “Oral administration of beta-carotene, lycopene and lutein for human skin protection” (priority 1999, published 2005).

Test system: healthy skin of light type II
Experiment: Photoprotection study in volunteers with oral carotinoid supplementation over 12 weeks
Format: in vivo, human
Experimental: The carotinoid absorption and photoprotection studies were carried out using a panel of 36 volunteers with healthy skin of light type II (Fitzpatrick & Pathak test). The starting values for each volunteer were determined at the beginning of the 12-week study. An interim study was conducted after 6 weeks and the final study after 12 weeks. The volunteers were divided into three groups of twelve who received the following daily doses: • 1st group: 25 mg Betatene® (corresponds to 24 mg β-carotene) • 2nd group: 8.3 mg Betatene® (corresponds to 8 mg β-carotene), 8 mg lycopene, 8 mg lutein (Xangold®) • 3rd group: placebo capsules.
The carotinoids were administered in soft gelatine capsules with 140 mg soybean oil.
The concentration of β-carotene, lycopene and lutein in the skin was determined by reflection spectrometry which was carried out on an area of 1 cm^2 of the forehead, the back of the hand, the palm of the hand, the inside of the lower arm and the back. The change in color of the skin during supplementation was differentiated by a Minolta chromameter (L, a, b system) into reddening of the skin (a values), yellow component (b values) and lightness of the skin (L values). The concentration of β-carotene, lycopene and lutein in the serum was determined by high-pressure liquid chromatography (HPLC). […]

`CC1=C(/C=C/C(C)=C/C=C/C(C)=C/C=C/C=C(C)/C=C/C=C(C)/C=C/C2=C(C)CCCC2(C)C)C(C)(C)CCC1` [β-carotene] was tested, and the “photoprotection of the skin in relation to the blank value (in words)” value (12 weeks of daily oral dosing, versus placebo group 3) was “doubles the photoprotection of the skin” and the Photoprotection (average of 12 volunteers per group after 12 weeks of daily oral dosing in soft gelatine capsules with soybean oil, relative to blank value (group 3, no carotinoids = 100), group 1: 24 mg β-carotene, group 2: 8 mg each of β-carotene, lycopene, lutein) was 200 %-rel.
